Assay results taken from ChEMBL document CHEMBL1201862, “PubChem BioAssay data set” (2004).
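Dose response: 5 concentrations. Exposure: 48 h. Format: 96-well plates. Endpoint: linear interpolation; highest concentration if not reached. GI50 = concentration required for 50% inhibition of growth.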 Activity calls are given as the source filed them. Cut-off read from the data, not from the text of the source: active = GI50 up to about 1.1 µM and inactive = higher.

How the values were obtained:
Assay in all cases: DTP human tumour cell line panel, 48 h
SNB-75 = tested on: SNB-75
NCI-H23 = tested on: NCI-H23
CCRF-CEM = tested on: CCRF-CEM
MDA-N = tested on: MDA-N
CAKI-1 = tested on: CAKI-1
SF-539 = tested on: SF-539
OVCAR-3 = tested on: OVCAR-3
UACC-62 = tested on: UACC-62
K562 = tested on: K562
MDA-MB-231 = tested on: MDA-MB-231
RPMI-8226 = tested on: RPMI-8226
MCF7 = tested on: MCF7
SF-268 = tested on: SF-268
HOP-62 = tested on: HOP-62
IGROV-1 = tested on: IGROV-1
MDA-MB-435 = tested on: MDA-MB-435
A498 = tested on: A498
UO-31 = tested on: UO-31
OVCAR-5 = tested on: OVCAR-5

Row | SMILES | GI50 (SNB-75) | GI50 (NCI-H23) | GI50 (CCRF-CEM) | GI50 (MDA-N) | GI50 (CAKI-1) | GI50 (SF-539) | GI50 (OVCAR-3) | GI50 (UACC-62) | GI50 (K562) | GI50 (MDA-MB-231) | GI50 (RPMI-8226) | GI50 (MCF7) | GI50 (SF-268) | GI50 (HOP-62) | GI50 (IGROV-1) | GI50 (MDA-MB-435) | GI50 (A498) | GI50 (UO-31) | GI50 (OVCAR-5)
1 | COc1ccc(OC)c2sc(N3C(=O)/C(=C/c4ccc(Cl)cc4)N=C3c3ccccc3)nc12 | 89.3 µM (inactive) | > 100 µM (inactive) | 37 µM (inactive) | 34.2 µM (inactive) | > 100 µM (inactive) | > 100 µM (inactive) | 46.3 µM (inactive) | 76.6 µM (inactive) | 26.2 µM (inactive) | > 100 µM (inactive) | 33.7 µM (inactive) | 29.7 µM (inactive) | 98.9 µM (inactive) | > 100 µM (inactive) | 85.9 µM (inactive) | 30.8 µM (inactive) | > 100 µM (inactive) | > 100 µM (inactive) | > 100 µM (inactive)
2 | C#CCn1c(=O)ccn(/C(=C/C(=O)OCC)C(=O)OCC)c1=O | 20.8 µM (inactive) | 11.9 µM (inactive) | 0.61 µM (active) | 17.2 µM (inactive) | 1.58 µM (inactive) | 1.48 µM (inactive) | 6.35 µM (inactive) | 14 µM (inactive) | 3.36 µM (inactive) | 14.8 µM (inactive) | 2.9 µM (inactive) | 3.18 µM (inactive) | 13.1 µM (inactive) | 13 µM (inactive) | 4.21 µM (inactive) | 10.9 µM (inactive) | 15.1 µM (inactive) | 12.6 µM (inactive) | 7.13 µM (inactive)
3 | COC(=O)c1csc([C@@H](OC(=O)[C@H](C)[C@H](CCCC(C)(Cl)Cl)OC(=O)c2csc([C@H](O)CO)n2)C(C)C)n1 | 1.39 µM (inactive) | 16.4 µM (inactive) | 17.2 µM (inactive) | 7.94 µM (inactive) | 17.7 µM (inactive) | 2.92 µM (inactive) | 15 µM (inactive) | 11.6 µM (inactive) | 16.4 µM (inactive) | 17.6 µM (inactive) | 15.2 µM (inactive) | 18 µM (inactive) | 17.7 µM (inactive) | 18.4 µM (inactive) | 11.3 µM (inactive) | 13.6 µM (inactive) | 18.3 µM (inactive) | 6.93 µM (inactive) | 15.5 µM (inactive)
4 | O=c1ccc2cc(O)c(O)cc2o1 [ESCULETIN] | > 100 µM (inactive) | > 100 µM (inactive) | > 100 µM (inactive) | > 100 µM (inactive) | > 100 µM (inactive) | > 100 µM (inactive) | > 100 µM (inactive) | > 100 µM (inactive) | > 100 µM (inactive) | > 100 µM (inactive) | > 100 µM (inactive) | > 100 µM (inactive) | > 100 µM (inactive) | > 100 µM (inactive) | > 100 µM (inactive) | > 100 µM (inactive) | > 100 µM (inactive) | > 100 µM (inactive) | > 100 µM (inactive)
5 | Cc1ccc(/N=N/C(=N\c2ccc(Cl)cc2)c2ccc(N(CCC#N)CCC#N)cc2)cc1 | 60.3 µM (inactive) | 48.6 µM (inactive) | 21.6 µM (inactive) | 55.6 µM (inactive) | > 100 µM (inactive) | 47.4 µM (inactive) | 33.4 µM (inactive) | 11.8 µM (inactive) | > 100 µM (inactive) | 25.8 µM (inactive) | > 100 µM (inactive) | 21.6 µM (inactive) | 48.1 µM (inactive) | 58.3 µM (inactive) | 30.3 µM (inactive) | 19.1 µM (inactive) | > 100 µM (inactive) | 6.89 µM (inactive) | > 100 µM (inactive)
6 | COc1cc(C2c3cc4c(cc3[C@@H](Nc3ccc(C#N)cc3)C3COC(=O)[C@H]23)OCO4)cc(OC)c1O (stereo partly specified) | 2.6 µM (inactive) | 0.622 µM (active) | 0.524 µM (active) | 6.21 µM (inactive) | 0.436 µM (active) | 1.14 µM (inactive) | 14.4 µM (inactive) | 0.962 µM (active) | 0.462 µM (active) | 9.31 µM (inactive) | 0.155 µM (active) | 0.881 µM (active) | 2.43 µM (inactive) | 0.592 µM (active) | 6.78 µM (inactive) | 8.77 µM (inactive) | 2.01 µM (inactive) | 1.62 µM (inactive) | 5.64 µM (inactive)
7 | Nc1c2c(nc3ccccc13)-c1ccccc1NCCC2 | 43.4 µM (inactive) | 47.3 µM (inactive) | 26.4 µM (inactive) | 17.5 µM (inactive) | 30.8 µM (inactive) | 21 µM (inactive) | 78.2 µM (inactive) | 18.3 µM (inactive) | 23.4 µM (inactive) | 19.7 µM (inactive) | 20.2 µM (inactive) | 34.2 µM (inactive) | 45.1 µM (inactive) | 16.6 µM (inactive) | 33.3 µM (inactive) | 22 µM (inactive) | 16.6 µM (inactive) | 25 µM (inactive) | 35.6 µM (inactive)
8 | CCOC(=O)/C=C(\C(=O)OCC)n1ccc(=O)n(Cc2cn(CCCCOC(C)=O)nn2)c1=O | 19.5 µM (inactive) | 16.6 µM (inactive) | 1.28 µM (inactive) | 19.5 µM (inactive) | 4.25 µM (inactive) | 2.34 µM (inactive) | 12.7 µM (inactive) | 16.1 µM (inactive) | 4.59 µM (inactive) | 18.6 µM (inactive) | 8.65 µM (inactive) | 7.69 µM (inactive) | 17.7 µM (inactive) | 20.7 µM (inactive) | 19.5 µM (inactive) | 5 µM (inactive) | 17.6 µM (inactive) | 15.3 µM (inactive) | 14.3 µM (inactive)
9 | COC(=O)C(Cc1ccccc1)NP(=O)(O)OCC1OC(n2cc(F)c(=O)[nH]c2=O)CC1O (stereo unspecified) | > 31.9 µM (inactive) | 10.9 µM (inactive) | 1.1 µM (active) | > 69 µM (inactive) | 3.72 µM (inactive) | 0.991 µM (active) | > 100 µM (inactive) | 7 µM (inactive) | 65.3 µM (inactive) | > 100 µM (inactive) | > 79.6 µM (inactive) | 0.317 µM (active) | 1.75 µM (inactive) | 2.58 µM (inactive) | > 22.5 µM (inactive) | > 86.3 µM (inactive) | 7.38 µM (inactive) | 5.24 µM (inactive) | > 100 µM (inactive)
10 | CCOC(=O)c1ccc(C(=O)/C(C#N)=C2\CCCN2)[nH]1 | 34 µM (inactive) | > 100 µM (inactive) | 63.2 µM (inactive) | 30.1 µM (inactive) | > 100 µM (inactive) | > 100 µM (inactive) | 82.2 µM (inactive) | > 100 µM (inactive) | 52.6 µM (inactive) | > 100 µM (inactive) | > 100 µM (inactive) | 98.4 µM (inactive) | > 100 µM (inactive) | > 100 µM (inactive) | > 100 µM (inactive) | 28.8 µM (inactive) | > 100 µM (inactive) | > 100 µM (inactive) | > 100 µM (inactive)
11 | NS(=O)(=O)c1ccc(/N=N/c2cccnc2O)cc1 | > 100 µM (inactive) | > 100 µM (inactive) | 20.7 µM (inactive) | > 100 µM (inactive) | > 100 µM (inactive) | > 100 µM (inactive) | > 100 µM (inactive) | > 100 µM (inactive) | > 100 µM (inactive) | > 100 µM (inactive) | > 100 µM (inactive) | > 100 µM (inactive) | > 100 µM (inactive) | > 100 µM (inactive) | > 100 µM (inactive) | > 100 µM (inactive) | > 100 µM (inactive) | > 100 µM (inactive) | > 100 µM (inactive)
12 | O=C1c2c(ccc3c2CCCC3)CC12Cc1ccccc1C2 | 20.4 µM (inactive) | 10.3 µM (inactive) | 10.8 µM (inactive) | 6.43 µM (inactive) | 7.62 µM (inactive) | 6.31 µM (inactive) | 9.93 µM (inactive) | 13.5 µM (inactive) | 11.8 µM (inactive) | 18.1 µM (inactive) | 4.35 µM (inactive) | 17 µM (inactive) | 43.2 µM (inactive) | 16.8 µM (inactive) | 30.2 µM (inactive) | 9.38 µM (inactive) | 11.1 µM (inactive) | 5.28 µM (inactive) | 21.8 µM (inactive)
13 | CCCCC(C#N)(OP1(=O)OC(c2ccccc2)C(C)N1C)c1ccccc1 (stereo unspecified) | 18.2 µM (inactive) | 19.7 µM (inactive) | 20.3 µM (inactive) | 16.4 µM (inactive) | 18.7 µM (inactive) | 15.5 µM (inactive) | 16.6 µM (inactive) | 14.3 µM (inactive) | 19 µM (inactive) | 15.7 µM (inactive) | 20.8 µM (inactive) | 19.9 µM (inactive) | 17.4 µM (inactive) | 21.6 µM (inactive) | 16.7 µM (inactive) | 17.7 µM (inactive) | 18.9 µM (inactive) | 17.3 µM (inactive) | 17.1 µM (inactive)
14 | CC[C@@H](/C=C\CCC1(C[C@H](O)CCC=C(C)C)OCCO1)O[Si](C(C)C)(C(C)C)C(C)C | 29.5 µM (inactive) | 26.9 µM (inactive) | 29 µM (inactive) | 33.5 µM (inactive) | 28.6 µM (inactive) | 18.5 µM (inactive) | 19 µM (inactive) | 22.6 µM (inactive) | 20 µM (inactive) | 17.3 µM (inactive) | 18.4 µM (inactive) | 17.3 µM (inactive) | 21.6 µM (inactive) | 34.3 µM (inactive) | 20.9 µM (inactive) | 35 µM (inactive) | 32.8 µM (inactive) | 19.2 µM (inactive) | 22 µM (inactive)
